Measured values from the supplement of paper PMC10627819.

Columns and labels:
[1] = tested on: B. subtilis 168; experiment: fitness (endpoint OD595 vs no drug) (fraction); higher = more growth
Summary of the method: (§1)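 Fitness compares growth at the stationary-phase transition with the robust mean of no-drug control wells, as a ratio of optical densities. The ratio is capped at 1. Wells of 384-well plates held 30 µl, or 55 µl for S. pneumoniae, inoculated at OD595 0.01. Readings at OD595 every 30 min for 14 h at 37 °C were corrected against the first reading.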

[2] = tested on: S. aureus DSM 20231; experiment: as above
Summary of the method: as §1

[3] = tested on: S. aureus Newman; experiment: as above
Summary of the method: as §1

[4] = tested on: S. pneumoniae D39V; experiment: as above
Summary of the method: as §1

[5] = tested on: B. subtilis 168; experiment: Bliss interaction score (quartile over a dose matrix) (fitness difference); higher = more antagonism (negative = synergy)
Summary of the method: (§2)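 The Bliss score takes observed fitness and subtracts the expected fitness, calculated as a product of single-drug fitness values. Those single-drug values were inferred from the combination data. Fitness is OD595 at entry into stationary phase divided by the plate's robust no-drug mean, capped at 1, and the score is summarised by quartiles across technical, biological and donor/recipient replicates.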

[6] = tested on: S. aureus DSM 20231; experiment: as above
Summary of the method: as §2

[7] = tested on: S. aureus Newman; experiment: as above
Summary of the method: as §2

[8] = tested on: S. pneumoniae D39V; experiment: as above
Summary of the method: as §2
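For Bliss interaction score (quartile over a dose matrix) in this document: first quartile when negative (synergy) and third quartile when positive (antagonism).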
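For fitness (endpoint OD595 vs no drug) in this document: OD595 on entry to stationary phase over no-drug wells; at most 1.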

O=C(O[C@@H]1Cc2c(O)cc(O)cc2O[C@@H]1c1cc(O)c(O)c(O)c1)c1cc(O)c(O)c(O)c1 [EGCG] + COc1ccc(C[C@H](N)C(=O)N[C@H]2[C@@H](O)[C@H](n3cnc4c(N(C)C)ncnc43)O[C@@H]2CO)cc1 [Puromycin]
fitness
Settings | first compound 6.25 µg/mL | first compound 12.5 µg/mL | first compound 25 µg/mL | first compound 50 µg/mL
[1], partner 0.39 µg/mL | 0.91 | – | – | –
[1], partner 0.78 µg/mL | 0.953 | – | – | –
[1], partner 1.56 µg/mL | 0.885 | – | – | –
[2], partner 0.39 µg/mL | – | 0.908 | 0.842 | –
[2], partner 0.78 µg/mL | – | 0.888 | 0.812 | 0.845
[2], partner 1.56 µg/mL | – | 0.864 | 0.846 | 0.777
[3], partner 0.39 µg/mL | – | 0.802 | 0.779 | 0.657
[3], partner 0.78 µg/mL | – | 0.809 | 0.789 | –
[3], partner 1.56 µg/mL | – | 0.846 | 0.787 | –
[4], partner 1 µg/mL | – | 0.949 | – | 0.965
[4], partner 2 µg/mL | – | 0.895 | 0.917 | 0.91
[4], partner 4 µg/mL | – | – | 0.384 | –

fitness, [2], one replicate
Settings | first compound 12.5 µg/mL | first compound 25 µg/mL | first compound 50 µg/mL
partner 3.12 µg/mL | 0.846 | 0.945 | 0.676
partner 6.24 µg/mL | 0.745 | 0.527 | 0.172

Settings | Bliss interaction score
[5] | -0.0503
[6] | 0.09
[7] | 0.0755
[8] | 0.0916

O=C(O[C@@H]1Cc2c(O)cc(O)cc2O[C@@H]1c1cc(O)c(O)c(O)c1)c1cc(O)c(O)c(O)c1 [EGCG] + CN1C2=CC=CC=C2N=C3C1=CC=CC3=O [Pyocyanin]
fitness
Settings | first compound 6.25 µg/mL | first compound 12.5 µg/mL | first compound 25 µg/mL | first compound 50 µg/mL
[1], partner 1.25 µg/mL | 0.81 | 0.898 | – | –
[1], partner 2.5 µg/mL | 0.831 | 0.805 | 0.638 | –
[1], partner 5 µg/mL | 0.662 | 0.645 | 0.485 | –
[2], partner 1.25 µg/mL | – | 0.677 | 0.689 | –
[2], partner 2.5 µg/mL | – | 0.693 | 0.682 | 0.624
[2], partner 5 µg/mL | – | 0.555 | 0.56 | 0.492
[3], partner 1.25 µg/mL | – | 0.679 | 0.616 | –
[3], partner 2.5 µg/mL | – | 0.647 | 0.548 | –
[3], partner 5 µg/mL | – | 0.403 | 0.409 | 0.315
[4], partner 0.325 µg/mL | – | 0.986 | ≥ 1 | ≥ 1
[4], partner 0.65 µg/mL | – | 0.976 | 0.98 | 0.925
[4], partner 1.3 µg/mL | – | 0.638 | 0.628 | 0.75

Settings | Bliss interaction score
[5] | 0.187
[6] | -0.114
[7] | -0.0806
[8] | -0.0423

O=C(O[C@@H]1Cc2c(O)cc(O)cc2O[C@@H]1c1cc(O)c(O)c(O)c1)c1cc(O)c(O)c(O)c1 [EGCG] + COc1c(N2C[C@@H]3CCCN[C@@H]3C2)c(F)cc2c(=O)c(C(=O)O)cn(C3CC3)c12 [Moxifloxacin]
fitness
Settings | first compound 6.25 µg/mL | first compound 12.5 µg/mL | first compound 25 µg/mL | first compound 50 µg/mL
[1], partner 0.0312 µg/mL | 0.0635 | 0.316 | 0.136 | –
[1], partner 0.0625 µg/mL | 0.0647 | 0.0486 | 0.0468 | –
[1], partner 0.125 µg/mL | 0.0455 | 0.0337 | 0.032 | –
[1], partner 2 µg/mL | 0.0355 | 0.0567 | 0.0285 | –
[1], partner 4 µg/mL | 0.0375 | 0.028 | 0.0104 | –
[1], partner 8 µg/mL | 0.0396 | 0.0267 | 0.0587 | –
[2], partner 0.0075 µg/mL | – | 0.686 | 0.605 | 0.629
[2], partner 0.015 µg/mL | – | 0.615 | 0.628 | 0.594
[2], partner 0.03 µg/mL | – | 0.53 | 0.554 | –
[3], partner 0.0075 µg/mL | – | 0.704 | 0.695 | –
[3], partner 0.015 µg/mL | – | – | – | 0.582
[3], partner 0.03 µg/mL | – | 0.3 | – | 0.0803
[4], partner 0.005 µg/mL | – | 0.942 | 0.947 | 0.973
[4], partner 0.01 µg/mL | – | 0.966 | 0.973 | 0.989
[4], partner 0.02 µg/mL | – | 0.918 | 0.933 | 0.931
[4], partner 0.0312 µg/mL | – | 0.265 | 0.152 | 0.499
[4], partner 0.0625 µg/mL | – | 0.0738 | 0.0517 | 0.944
[4], partner 0.125 µg/mL | – | 0.0322 | 0.0297 | 0.69

fitness, [2], one replicate
Settings | first compound 12.5 µg/mL | first compound 25 µg/mL | first compound 50 µg/mL
partner 0.06 µg/mL | 0.636 | 0.584 | 0.607
partner 0.12 µg/mL | 0.537 | 0.495 | 0.506

Settings | Bliss interaction score
[5] | 0.04
[6] | -0.0635
[7] | 0.103
[8] | -0.0486

O=C(O[C@@H]1Cc2c(O)cc(O)cc2O[C@@H]1c1cc(O)c(O)c(O)c1)c1cc(O)c(O)c(O)c1 [EGCG] + CC1=C\[C@@H](O)CC(=O)Cc2nc(co2)C(=O)N2CCC=C2C(=O)O[C@H](C(C)C)[C@H](C)/C=C/C(=O)NC\C=C\1 [Virginiamycin M1]
fitness
Settings | partner 0.0625 µg/mL | partner 0.125 µg/mL | partner 0.25 µg/mL | partner 0.5 µg/mL | partner 1 µg/mL | partner 2 µg/mL
[1], first compound 6.25 µg/mL | 0.973 | 0.974 | 0.997 | – | – | –
[2], first compound 12.5 µg/mL | 0.86 | 0.931 | 0.686 | – | – | –
[2], first compound 25 µg/mL | 0.859 | ≥ 1 | 0.904 | – | – | –
[2], first compound 50 µg/mL | 0.76 | 0.986 | 0.82 | – | – | –
[3], first compound 12.5 µg/mL | 0.811 | 0.858 | 0.817 | – | – | –
[3], first compound 25 µg/mL | 0.868 | 0.897 | 0.865 | – | – | –
[3], first compound 50 µg/mL | 0.925 | 0.96 | 0.878 | – | – | –
[4], first compound 12.5 µg/mL | – | – | – | 0.973 | 0.958 | 0.921
[4], first compound 25 µg/mL | – | – | – | ≥ 1 | ≥ 1 | 0.89
[4], first compound 50 µg/mL | – | – | – | 0.965 | 0.946 | 0.889

fitness, one replicate
Settings | first compound 12.5 µg/mL | first compound 25 µg/mL | first compound 50 µg/mL
[2], partner 0.5 µg/mL | 0.807 | 0.715 | 0.694
[2], partner 1 µg/mL | 0.67 | 0.65 | 0.543
[3], partner 0.5 µg/mL | 0.678 | 0.728 | 0.682
[3], partner 1 µg/mL | 0.702 | 0.715 | 0.677
[3], partner 2 µg/mL | 0.671 | 0.624 | 0.622
[4], partner 0.15 µg/mL | 0.891 | 0.872 | 0.883
[4], partner 0.3 µg/mL | 0.823 | 0.847 | 0.842

Settings | Bliss interaction score
[5] | 0.0619
[6] | 0.119
[7] | 0.0651
[8] | -0.092
